Compound in experiment [1]: COc1cc2ncnc(Nc3ccc(F)c(Cl)c3)c2cc1NC(=O)/C=C/CN1CCCCC1
Nature of the experiment: surviving fraction relative to DMSO-only wells; higher = less growth inhibition. The following applies: exposure time: 5 days. The method, boiled down:
(§1)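 Log-phase tumour cell lines, 250–500 cells per well in 384-well plates, received inhibitors at 0.5, 1, 5, 10, 50, 100, 500 and 1000 nM continuously for five days, starting 24 hours after seeding. Viability was quantified with CellTiter-Glo luminescence and normalised to the median of DMSO-only wells to give surviving fraction. Three screens were run per line, and a line stayed in only with replicate Pearson r >0.7 and median Z' >0.3.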

Compound in a further experiment: Oc1nc(-c2ccc(C(F)(F)F)cc2)nc2c1CSCC2 [XAV-939]
The description is as above. The following applies: exposure time: 5 days. The method, boiled down:
as §1

± gives the standard deviation of the averaged measurements.

Turning to PCI30 HEADNECK, the surviving fraction came out at 0.985 ± 0.029 in experiment [1] (0.5 nM); 1.01 ± 0.087 in experiment [1] (1 nM); 0.649 ± 0.07 in experiment [1] (5 nM); 0.551 ± 0.078 in experiment [1] (10 nM); 0.393 ± 0.01 in experiment [1] (50 nM); 0.392 ± 0.013 in experiment [1] (100 nM). The surviving fraction in experiment [1] (500 nM) turned out to be 0.194 ± 0.035; in experiment [1] (1000 nM) it was 0.0737 ± 0.0085; with XAV-939 (0.5 nM) it was 1.01 ± 0.029; with XAV-939 (1 nM), 0.975 ± 0.064; with XAV-939 (5 nM), 1.07 ± 0.04; with XAV-939 (10 nM) it was 1.057 ± 0.0035. In addition, the surviving fraction in the experiment with XAV-939 (50 nM) was found to be 1.06 ± 0.036; in the experiment with XAV-939 (100 nM), 1.15 ± 0.065; with XAV-939 (500 nM) it was 0.945 ± 0.13; in the experiment with XAV-939 (1000 nM), 0.8693 ± 0.008.

Regarding SJSA1 BONE, the surviving fraction turned out to be 1.04 ± 0.071 in experiment [1] (0.5 nM); 1.08 ± 0.072 in experiment [1] (1 nM); 1.05 ± 0.053 in experiment [1] (5 nM); 1.09 ± 0.016 in experiment [1] (10 nM); 1.1 ± 0.043 in experiment [1] (50 nM); 1.14 ± 0.074 in experiment [1] (100 nM). Also, the surviving fraction in experiment [1] (500 nM) amounted to 1.04 ± 0.072; in experiment [1] (1000 nM), 1.01 ± 0.03; with XAV-939 (0.5 nM), 1.1 ± 0.061; with XAV-939 (1 nM), 1.04 ± 0.053; with XAV-939 (5 nM) it was 1.06 ± 0.037; in the experiment with XAV-939 (10 nM), 1.12 ± 0.055. For the same test system, the surviving fraction came to 1.16 ± 0.06 in the experiment with XAV-939 (50 nM), 1.18 ± 0.037 with XAV-939 (100 nM), 1.07 ± 0.071 in the experiment with XAV-939 (500 nM) and 1.08 ± 0.014 in the experiment with XAV-939 (1000 nM).

Take MDAMB157 BREAST: the surviving fraction is 0.951 ± 0.025 in experiment [1] (0.5 nM); 0.894 ± 0.018 in experiment [1] (1 nM); 1 ± 0.046 in experiment [1] (5 nM); 0.964 ± 0.056 in experiment [1] (10 nM); 0.95 ± 0.094 in experiment [1] (50 nM); 0.864 ± 0.051 in experiment [1] (100 nM). Further, the surviving fraction in experiment [1] (500 nM) amounted to 0.887 ± 0.1; in experiment [1] (1000 nM), 0.63 ± 0.095; with XAV-939 (0.5 nM), 0.969 ± 0.012; with XAV-939 (1 nM), 0.94 ± 0.11; in the experiment with XAV-939 (5 nM), 0.974 ± 0.059; in the experiment with XAV-939 (10 nM), 1.05 ± 0.039. In addition, the surviving fraction in the experiment with XAV-939 (50 nM) worked out at 0.919 ± 0.084; with XAV-939 (100 nM), 0.934 ± 0.079; with XAV-939 (500 nM) it was 0.775 ± 0.071; with XAV-939 (1000 nM) it was 0.709 ± 0.074.

As to BT20 BREAST, the surviving fraction was determined as 1.08 ± 0.071 in experiment [1] (0.5 nM); 1 ± 0.12 in experiment [1] (1 nM); 0.895 ± 0.015 in experiment [1] (5 nM); 0.934 ± 0.13 in experiment [1] (10 nM); 1.05 ± 0.028 in experiment [1] (50 nM); 0.996 ± 0.13 in experiment [1] (100 nM). Also, the surviving fraction was 1.13 ± 0.045 in experiment [1] (500 nM); 0.809 ± 0.16 in experiment [1] (1000 nM); 1.08 ± 0.19 in the experiment with XAV-939 (0.5 nM); 1.06 ± 0.043 with XAV-939 (1 nM); 1.05 ± 0.079 with XAV-939 (5 nM); 1.05 ± 0.051 in the experiment with XAV-939 (10 nM). For the same test system, the surviving fraction in the experiment with XAV-939 (50 nM) is 1.08 ± 0.14; in the experiment with XAV-939 (100 nM) it was 1.14 ± 0.05; in the experiment with XAV-939 (500 nM), 1.26 ± 0.057; with XAV-939 (1000 nM), 1.23 ± 0.1.

For the test system LNCAP PROSTATE, the surviving fraction in experiment [1] (0.5 nM) is 0.807 ± 0.074; in experiment [1] (1 nM), 0.828 ± 0.13; in experiment [1] (5 nM) it was 0.858 ± 0.19; in experiment [1] (10 nM), 0.888 ± 0.16; in experiment [1] (50 nM), 0.95 ± 0.043; in experiment [1] (100 nM) it was 1.02 ± 0.048. Moreover, the surviving fraction was 0.896 ± 0.097 in experiment [1] (500 nM); 0.797 ± 0.12 in experiment [1] (1000 nM); 0.85 ± 0.076 in the experiment with XAV-939 (0.5 nM); 0.83 ± 0.11 with XAV-939 (1 nM); 0.94 ± 0.058 with XAV-939 (5 nM); 0.921 ± 0.054 with XAV-939 (10 nM). Also, the surviving fraction with XAV-939 (50 nM) is 0.797 ± 0.071; with XAV-939 (100 nM), 0.936 ± 0.1; in the experiment with XAV-939 (500 nM) it was 0.741 ± 0.12; in the experiment with XAV-939 (1000 nM) it was 0.713 ± 0.14.

Take HCC202 BREAST: the surviving fraction in experiment [1] (0.5 nM) is 1.1 ± 0.1; in experiment [1] (1 nM), 1.06 ± 0.15; in experiment [1] (5 nM) it was 0.723 ± 0.13; in experiment [1] (10 nM), 0.757 ± 0.14; in experiment [1] (50 nM), 0.373 ± 0.041; in experiment [1] (100 nM) it was 0.297 ± 0.067. Moreover, the surviving fraction amounted to 0.131 ± 0.026 in experiment [1] (500 nM); 0.0933 ± 0.023 in experiment [1] (1000 nM); 1.4 ± 0.094 with XAV-939 (0.5 nM); 1.23 ± 0.2 with XAV-939 (1 nM); 1.17 ± 0.094 in the experiment with XAV-939 (5 nM); 0.972 ± 0.14 with XAV-939 (10 nM). For the same test system, the surviving fraction worked out at 1.12 ± 0.18 with XAV-939 (50 nM), 0.905 ± 0.077 with XAV-939 (100 nM), 1.04 ± 0.2 with XAV-939 (500 nM) and 0.953 ± 0.065 with XAV-939 (1000 nM).

As for SCC90 HEADNECK, the surviving fraction turned out to be 0.948 ± 0.041 in experiment [1] (0.5 nM); 0.938 ± 0.039 in experiment [1] (1 nM); 0.647 ± 0.1 in experiment [1] (5 nM); 0.608 ± 0.018 in experiment [1] (10 nM); 0.388 ± 0.017 in experiment [1] (50 nM); 0.4 ± 0.024 in experiment [1] (100 nM). Moreover, the surviving fraction came out at 0.377 ± 0.066 in experiment [1] (500 nM); 0.294 ± 0.023 in experiment [1] (1000 nM); 1.01 ± 0.1 in the experiment with XAV-939 (0.5 nM); 1.11 ± 0.18 with XAV-939 (1 nM); 1.08 ± 0.077 in the experiment with XAV-939 (5 nM); 1.13 ± 0.071 with XAV-939 (10 nM). The surviving fraction in the experiment with XAV-939 (50 nM) was determined as 1.05 ± 0.03; in the experiment with XAV-939 (100 nM), 1.05 ± 0.084; with XAV-939 (500 nM), 0.894 ± 0.032; with XAV-939 (1000 nM), 0.918 ± 0.07.

Consider NY BONE, for which the surviving fraction is 0.99 ± 0.014 in experiment [1] (0.5 nM); 0.975 ± 0.032 in experiment [1] (1 nM); 1.05 ± 0.032 in experiment [1] (5 nM); 1.01 ± 0.071 in experiment [1] (10 nM); 1.04 ± 0.044 in experiment [1] (50 nM); 1 ± 0.051 in experiment [1] (100 nM). Moreover, the surviving fraction came to 0.756 ± 0.011 in experiment [1] (500 nM); 0.514 ± 0.01 in experiment [1] (1000 nM); 0.927 ± 0.024 with XAV-939 (0.5 nM); 0.98 ± 0.037 with XAV-939 (1 nM); 0.997 ± 0.018 with XAV-939 (5 nM); 1.06 ± 0.036 with XAV-939 (10 nM). Also, the surviving fraction in the experiment with XAV-939 (50 nM) came out at 1.03 ± 0.053; with XAV-939 (100 nM) it was 1.02 ± 0.041; with XAV-939 (500 nM), 0.936 ± 0.032; with XAV-939 (1000 nM), 0.924 ± 0.029.

(Values after the supplement of paper PMC6045584.)
